# Paper PMC11585924, “Direct measurements of neurosteroid binding to specific sites on GABAA receptors” (British journal of pharmacology, 2024)
# Where “and” joins values, the source holds several entries; their conditions need not be identical. Equal values may be shown once. Entries after “also recorded” stand apart in the source; their conditions may differ.
# Key:
# ELIC-α1^W246LGABAAR [1] = target: T1, ELIC-α1^W246LGABAAR (Homo sapiens, UniProt P14867, W273L); assay: biochemical; format: binding
# T1 sequence (P14867 other isoform, or with tags, fused parts or gaps W273L): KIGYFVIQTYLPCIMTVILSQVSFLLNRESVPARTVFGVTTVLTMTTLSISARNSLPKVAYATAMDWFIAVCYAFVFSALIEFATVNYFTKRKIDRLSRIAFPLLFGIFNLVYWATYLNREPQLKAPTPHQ
# T1 sequence (P0C7B7 1-198, further chain): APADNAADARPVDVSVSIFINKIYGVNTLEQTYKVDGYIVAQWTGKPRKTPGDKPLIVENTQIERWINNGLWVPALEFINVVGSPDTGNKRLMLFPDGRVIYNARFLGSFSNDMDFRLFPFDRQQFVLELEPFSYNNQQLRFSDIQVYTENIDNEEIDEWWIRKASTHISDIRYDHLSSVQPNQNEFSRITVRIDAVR
# Experimental: ELIC-α1GABAAR was expressed and purified according to a previously published protocol ([Q. Chen et al., 2018]). The purified protein was aliquoted and stored at −80°C. Mutagenesis was performed as described in previous reports ([Kinde et al., 2016]) by oligonucleotide-directed mutagenesis using Phu polymerase (Thermo Fisher Scientific, Waltham, MA, USA) verified by sequencing. ELIC-α1GABAAR was expressed in OverExpress™ C43(D3) E. coli, derived from Rosetta™(DE3) cells under double selection with kanamycin and chloramphenicol for ELIC-α1GABAAR.
# One hundred microlitres of purified ELIC-α1GABAAR (0.3 μM in Buffer A + 0.015% DDM) was transferred into a 50-μl window quartz cuvette (Starna Cells, Atascadero, CA, USA), which was placed in a cuvette holder maintained at 4°C. […] Two microlitres of NaI (AK Scientific, Union City, CA, USA; 5-M stock prepared in 0.1-Mm sodium hydrosulfite [Sigma-Aldrich, St. Louis, MO, USA]) was added to the protein (final concentration = 100 mM) and incubated for 10 min to reduce the fluorescence emission from hydrophilic tryptophans. To measure the concentration–dependent effects of NS on tryptophan fluorescence, 1 μl of NS from each 100× stock solution was sequentially added to the NaI-equilibrated protein and thoroughly mixed to achieve concentrations from 0.01 to 50 μM. […]
# ELIC-α1GABAAR [2] = target: T2, ELIC-α1GABAAR (Homo sapiens, UniProt P14867); format: binding
# T2 sequence (P14867 other isoform, or with tags, fused parts or gaps): as the sequence (P14867 other isoform, or with tags, fused parts or gaps W273L) above, with L25W counted along it
# T2 sequence (P0C7B7 1-198, further chain): as the sequence (P0C7B7 1-198, further chain) above
# Experimental: (§1) One hundred microlitres of ELIC-α1GABAAR (0.3 μM) was transferred into a 50-μl window quartz cuvette maintained at 4°C, and NaI was added to the protein sample to a final concentration of 100 mM and incubated for 10 min. MQ290 was then added at a concentration of 3 μM for 3α-OH NS inhibition curves or 1 μM for 3β-OH NS inhibition curves and incubated for 30 min. One-microlitre aliquots of 3α-OH and 3β-OH NS from their corresponding stock solutions (prepared in Buffer A + 0.015% DDM) were added to achieve concentrations between 0.01 and 30 μM. The background emission spectra of ligands alone were obtained for each ligand concentration in the absence of protein and were subtracted from the protein-ligand emission spectra to yield background subtracted data. The MQ290 FRET spectra for different ligand concentrations were estimated using the method described above. The 370-nm intensities of the FRET spectra were plotted against ligand concentration and fitted to a four-parameter logistic curve to obtain IC50 data (GraphPad Software version 9.4.0, San Diego, CA). Ki values were calculated using the relationship: Ki=IC50/1+LT/Kd
# where LT is the concentration of MQ290 and Kd was determined from the MQ290 binding curve.
# ELIC-α1^W246LGABAAR [3] = target: T1, ELIC-α1^W246LGABAAR; assay: Inhibition of MQ290 FRET by NS in W246L receptors; format: binding; settings: 30 μM NS; MQ290 1 μM
# Experimental: as §1
# ELIC-α1GABAAR [4] = target: T2, ELIC-α1GABAAR; assay: KK200 photolabelling competition, middle-down MS; format: binding; settings: 3 μM KK200, 30 μM competitor
# Experimental: The synthesis of the NS photolabelling reagent KK200 is detailed in previous reports ([W. W. L. Cheng et al., 2018]; [Jiang et al., 2016]). […] The samples were then irradiated in a quartz cuvette for 5 min, using a photoreactor emitting light at >320 nm ([Germann et al., 2021]). Sample preparation for tryptic digestion and analysis by LC–MS was performed as previously described ([Sugasawa et al., 2019]). Peptides were separated on a home-packed PLRP-S (Agilent, Santa Clara, CA, USA) column (10 cm × 75 μm, 300 Å) using a 135-min gradient from 10% to 90% acetonitrile and introduced to an Orbitrap-Elite mass spectrometer (Thermo Fisher Scientific, Waltham, MA, USA; RRID:SCR_020548) at 800 nl·min^−1 with a nanospray source. MS acquisition was set as an MS1 Orbitrap scan (resolution of 60,000) followed by top 20 MS2 Orbitrap scans (resolution of 15,000) using data-dependent acquisition and exclusion of singly charged precursors. Fragmentation was performed using high-energy dissociation with normalized energy of 35%. Analysis of data sets was performed using Xcalibur (Thermo Fisher Scientific, Waltham, MA, USA; RRID: SCR_014593) to manually search for TM1, TM2, TM3 or TM4 tryptic peptides with or without NS photolabelling modifications. Photolabelling efficiency was estimated by generating extracted chromatograms of unlabelled and labelled peptides, determining the area under the curve, and calculating the (area of labelled peptide/(area of unlabelled + area of labelled peptide). MS2 spectra of photolabelled TMD peptides were analysed by manual assignment of fragment ions with and without photolabelling modification.
# α1β3 GABAA receptors [5] = target: α1β3 GABAA receptors; set-up: method as in Tateiwa et al., 2023; settings: ref Tateiwa et al., 2023; read-out: apparent Kd; cited from earlier work
# ELIC-α1^W246LGABAAR [6] = target: T1, ELIC-α1^W246LGABAAR; assay: MQ290 FRET in W246L receptors; format: binding; settings: W246L vs WT
# Experimental: (§2) To monitor binding of MQ290 to ELIC-α1GABAAR, 100 μl of ELIC-α1GABAAR (0.3 μM) was transferred into a 50-μl window quartz cuvette that was placed in a cuvette holder. The temperature of the cuvette was maintained at 4°C. NaI (final concentration = 100 mM) was added to the protein sample and incubated for 10 min to reduce the emission of hydrophilic tryptophan residues. One-microlitre aliquots of 100× stock solutions of MQ290 (prepared in Buffer A + 0.015% DDM) were sequentially added to the protein sample and incubated for 30 min after each addition. Because MQ290 alone absorbs at 280 nm, emission spectrum (background spectrum) of MQ290 in the absence of protein was also obtained. The MQ290 background spectra were subtracted from the protein-MQ290 emission spectra to obtain the background-corrected spectra and were smoothened using the Savitzky–Golay method before analysis.
# (§3) The ELIC-α1GABAAR emission spectrum obtained before the addition of MQ290 was used as the reference to estimate the contribution of ELIC-α1GABAAR tryptophan emission in the presence of MQ290. […] The calculated ELIC-α1GABAAR tryptophan emission spectrum was then subtracted from the background-corrected spectrum to obtain the emission spectrum of the signal resulting from energy transfer (FRET spectrum) from tryptophan to MQ290 (Figure S6). […]
# ELIC-α1^Q242LGABAAR = assay: MQ290 FRET in Q242L receptors; format: binding, human; settings: Q242L vs WT
# Experimental: as §2, §3
# α1β3 GABAA receptors [7] = target: T3, α1β3 GABAA receptors (Homo sapiens, UniProt P14867+P28472); assay: Two-electrode voltage clamp of GABA-elicited currents in Xenopus oocytes; format: cell-based
# T3 construct: expressed in transfected cells; host or cells: Xenopus laevis oocytes, cRNA injected 5:1 (α1:β3)
# T3 sequence (P14867 28-456): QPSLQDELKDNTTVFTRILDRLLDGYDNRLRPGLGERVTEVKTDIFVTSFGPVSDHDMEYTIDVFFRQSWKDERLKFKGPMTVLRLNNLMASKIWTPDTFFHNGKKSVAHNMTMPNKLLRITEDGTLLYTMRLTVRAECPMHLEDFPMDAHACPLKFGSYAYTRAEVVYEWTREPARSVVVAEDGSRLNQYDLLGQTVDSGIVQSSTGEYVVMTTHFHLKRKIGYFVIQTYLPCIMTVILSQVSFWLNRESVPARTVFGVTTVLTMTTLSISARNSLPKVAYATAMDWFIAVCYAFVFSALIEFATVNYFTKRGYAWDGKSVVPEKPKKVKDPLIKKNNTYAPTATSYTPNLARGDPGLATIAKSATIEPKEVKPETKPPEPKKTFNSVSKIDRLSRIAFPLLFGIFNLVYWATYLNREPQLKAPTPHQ
# T3 sequence (P28472 26-473): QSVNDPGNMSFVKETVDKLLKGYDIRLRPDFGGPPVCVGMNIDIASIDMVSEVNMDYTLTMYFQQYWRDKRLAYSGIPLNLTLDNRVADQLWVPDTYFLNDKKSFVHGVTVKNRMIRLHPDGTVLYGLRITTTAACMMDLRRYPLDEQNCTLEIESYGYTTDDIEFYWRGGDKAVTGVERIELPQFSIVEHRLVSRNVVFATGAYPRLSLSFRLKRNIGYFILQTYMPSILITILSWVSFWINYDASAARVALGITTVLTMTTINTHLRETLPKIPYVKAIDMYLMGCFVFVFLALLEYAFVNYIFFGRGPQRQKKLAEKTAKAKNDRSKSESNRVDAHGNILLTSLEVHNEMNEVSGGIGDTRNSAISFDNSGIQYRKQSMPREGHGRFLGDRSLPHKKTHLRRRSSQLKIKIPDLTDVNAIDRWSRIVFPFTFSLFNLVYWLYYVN
# Experimental: (§4) Receptor expression and electrophysiological recordings were conducted as described in detail previously ([Sugasawa et al., 2020]). In brief, α1β3 GABAA receptors were expressed in oocytes from the African clawed frog (X. laevis). The wild-type α1 and β3 subunits were of human origin (Genbank accession numbers NM_000806.5 and NM_000814.5, respectively). The α1 clone containing the Q-to-L mutation to the classic neurosteroid binding site ([Hosie et al., 2006]) was of rat origin. (The glutamine residue in ELIC-α1GABAAR is Q242, whereas the corresponding residue in rat α1 is Q241. For simplicity, the residue is referred to as Q242 for both rat and ELIC-α1GABAAR.) The oocytes were purchased as quarter ovaries from Xenopus1 (Dexter, MI, USA). Following digestion in 2% w/v (mg·ml^−1) collagenase A, the oocytes were injected with a total of 12 ng cRNA per oocyte in a 5:1 ratio (α1:β3) and incubated at 15°C for 2–3 days prior to electrophysiological recordings in ND96 (96-mM NaCl, 2-mM KCl, 1.8-mM CaCl2, 1-mM MgCl2, 5-mM HEPES; pH 7.4) supplemented with 100 U·ml^−1 penicillin and 100 μg·ml^−1 streptomycin.
# (§5) Electrophysiological recordings were conducted at ≈22°C using standard two-electrode voltage clamp. The voltage and current electrodes (G120F-4, OD = 1.20 mm, ID = 0.69 mm; Warner Instruments, Hamden, CT, USA) were filled with 3-M KCl and had resistances of 0.3–1 MΩ. The oocytes were clamped at −60 mV. The chamber (RC-1Z; Warner Instruments) was perfused with ND96 at 5–8 ml·min^−1. Solutions were gravity-applied. The current responses were amplified with an Axoclamp 900A (Molecular Devices, San Jose, CA, USA) or OC-725C amplifier (Warner Instruments), digitized with a Digidata 1200 series digitizer (Molecular Devices) and stored on PC hard drive using pClamp (Molecular Devices; RRID:SCR_011323). Current amplitudes were determined using Clampfit (Molecular Devices).
# A standard experiment consisted of a several-minute long applications of GABA followed immediately by a co-application of GABA + modulator and a wash in GABA. For normalization purposes, each cell was exposed to the combination of saturating (1-mM) GABA + 50-μM propofol, assumed to fully activate all receptors in the cell ([Eaton et al., 2016]).
# [8] = system: T4, α1^Q242Lβ3 GABAA receptors; assay: Two-electrode voltage clamp, α1(Q242L) mutant receptors in Xenopus oocytes; format: cell-based, rat α1, human β3; settings: low GABA; α1(Q242L)β3
# T4 construct: expressed in transfected cells; host or cells: Xenopus laevis oocytes, cRNA injected 5:1 (α1:β3)
# Experimental: as §4, §5
# A standard experiment consisted of a several-minute long applications of GABA followed immediately by a co-application of GABA + modulator and a wash in GABA. […]
SMILES,IC50 (ELIC-α1^W246LGABAAR [1]) [µM],"Hill slope (ELIC-α1GABAAR [2]; 3α-OH NS, MQ290 3 μM)",mechanism of inhibition of MQ290 binding (ELIC-α1GABAAR [2]; MQ290 binding curves with 3×Kd and 30 μM NS),inhibition of remaining MQ290 FRET signal in W246L (ELIC-α1^W246LGABAAR [3]),prevention of KK200 photolabelling of TM3 (Y309) (ELIC-α1GABAAR [4]),Kd (α1β3 GABAA receptors [5]) [µM],reduction of maximal MQ290 FRET signal in W246L receptors (ELIC-α1^W246LGABAAR [6]),MQ290 FRET signal in Q242L mutants (ELIC-α1^Q242LGABAAR),EC50 (α1β3 GABAA receptors [7]) [µM],"potentiation of GABA-elicited currents (α1β3 GABAA receptors [7]; low GABA, wild-type α1β3)",potentiating effect with α1(Q242L) mutation [8]
"CC(=O)[C@H]1CC[C@H]2[C@@H]3CC[C@H]4C[C@H](O)CC[C@]4(C)[C@H]3CC[C@]12C [AlloP, allopregnanolone]",0.5 ± 0.21,−1.89 ± 0.26,competitive interaction,reduced by neither,significantly different than control; also recorded: prevented,0.1 ± 0.05,,,,,
CO[C@H]1CCC2C3=CC=C4C[C@H](O)CC[C@]4(C)C3=CC[C@@]21C (stereo partly drawn) [MQ290],,,,,significantly different than control; also recorded: prevented,,~ 90% and 90%,significantly reduced,1 to 10,potentiates,eliminated
